Test results taken from US9029414B2, “Triterpenoid compounds and methods of use thereof” (Biotechnology Research Corporation, priority 2008, dated 2015).

What was measured:
human MC4 receptor = human MC4 receptor (Homo sapiens, UniProt P32245); assay: Cellular receptor functional assay (cAMP), MC4; type: cell-based; conditions: cells over-expressing MC4
Experimental: FIG. 1. […] DA001 alone is unable to induce cAMP increase (blue square dots).
(§1) DA001 inhibits ligand binding to MC1 and MC4 receptors. To determine whether the inhibitory effect is due to agonist or antagonist activity, DA001 was evaluated at 6 or 8 concentrations in cellular assays assessing receptor function. Upon ligand binding, the MC1 or MC4 receptor is activated which leads to an increase in intracellular cyclic AMP. […] DA001 alone is unable to induce cAMP increase (blue square dots). […] DA001 was further evaluated with MC2 receptor functional assay. Upon ligand binding, the MC2 receptor is activated which leads to an increase in intracellular cyclic AMP.

human MC1 receptor [1] = target: T1, human MC1 receptor (Homo sapiens, UniProt Q01726); assay: Cellular receptor functional assay (cAMP), MC1; type: cell-based
Experimental: as §1

human MC1 receptor [2] = target: T1, human MC1 receptor; assay: Radioligand competition binding assay, MC1
Experimental: DA001 was evaluated against 109 receptor binding assays and 17 enzyme assays, comprising of selective, central and peripheral therapeutically-relevant targets. Radioligand competition assays were conducted whereby DA001 was tested at one concentration (10 μM) in duplicate. […] It could compete with the radioligand [^125I-NDP-alpha-melanocyte-stimulating hormone (α-MSH)] binding for MC1 and MC4 but not MC3 and MC5 nor the related family, the melanin concentrating hormone receptors (MCH1 and MCH2).
To determine the IC50 for DA001 to inhibit α-MSH binding on MC1 and MC4 receptor, the compound was further characterized by a dose-dependent study. DA001 was evaluated with 8 concentrations on MC1 and MC4 receptor binding assays.
The specific ligand binding to the receptors is defined as the difference between the total binding and the nonspecific binding determined in the presence of an excess of unlabelled ligand. The results are expressed as a percent of control specific binding [(measured specific binding/control specific binding)×100] and as a percent inhibition of control specific binding {100−[(measured specific binding/control specific binding)×100]} obtained in the presence of DA001. The IC50 values (concentration causing a half-maximal inhibition of control specific binding) and Hill coefficients (nH) were determined by non-linear regression analysis of the competition curves generated with mean replicate values using Hill equation curve fitting (Y=D+[(A−D)/(1+(C/C50)nH)], where Y=specific binding, D=minimum specific binding, A=maximum specific binding, C=compound concentration, C50=IC50, and nH=slope factor). This analysis was performed using a software developed at Cerep (Hill software) and validated by comparison with data generated by the commercial software SigmaPlot® 4.0 for Windows® (© 1997 by SPSS Inc.).

[3] = test system: C/EBP-b and c-fos expression in cortical neurons; assay: C/EBP-b and c-fos mRNA (real-time PCR) in cortical neurons; type: cell-based; conditions: vs DMSO
Experimental: FIG. 4. DA001 induces CEBPb mRNA in cortical neurons. Cortical neurons were incubated with DA001 or the DMSO control for 3 different time intervals. Gene expression was normalized against the house-keeping gene, hypoxanthine phosphoribosyltransferase 1 (HPRT1) and glyceraldehyde 3-phosphate dehydrogenase (GAPDH) and compared to the control (DMSO) treatment. Relative change in gene expression induced by DA001 was compared with DMSO. Asterisk represents P<0.05.
Cortical neurons of 11 DIV-12 DIV were pre-incubated with DA001 or DMSO for 24 hours. Cells were washed in Locke's medium without magnesium for 15 min, followed by the treatment of NMDA (20 μM) or water for 20 min. Neurons were incubated with normal growth medium and total RNA were extracted at different time intervals after or without NMDA treatment. Total RNA was extracted using RNeasy Mini kit (Qiagen) according to the manufacturer's protocol, and was reverse-transcribed into single-stranded cDNA with SuperScript II Reverse Transcriptase (Invitrogen) and oligo-dT primers. Real-time Quantitative PCR was performed using Power SYBR Green PCR Master Mix (Applied Biosystems) on the Mx3000P Real-Time PCR System (Stratagene). […]
Cortical neurons were treated with DA001 at different time intervals. The expression of CCAAT/enhancer binding protein beta (C/EBP-b) and c-fos was measured at three different time intervals by real-time PCR. […]

BALB/c mice = assay: Murine model of oxazolone-induced ear edema; type: in vivo
Experimental: This is a contract research performed by Washington Biotechnology Inc., Columbia, Md., protocol 1041. On day 0, 42 BALB/c mice (female, Harlan Sprague-Dawley, 5-6 weeks) were shaved on the ventral surface of the right ear. 100 μl of the 5% oxazolone solution (Sigma) was then applied to the saved ear. The treated mice were then returned to the cage and kept for additional 6 days. On day 7, the mice were weighed and dosed orally with 10 ml/kg water or DA021 at either 30 mg/kg or 100 mg/kg or topically applied on both sides of both ears with 25 μl betamethasone. Thirty minutes after oral dosing, 5 μl of 3% oxazolone was applied to both sides of the right ear and 5 μl of acetone was applied to both sides of the contralateral ear. Twenty-four hours after 3% oxazolone/acetone application, the mice were euthanized, the ears removed and weighed.
To evaluate the efficacy and potency of DA021 in acute inflammation, an oxazolone-induced ear edema model was carried out in mice. Oxazolone-induced ear edema model is a commonly used skin inflammatory animal model. Oxazolone (OA) is an allergen that induces immunological responses that lead to surface edema. […] Betamethasone (BMS) which was used as a positive control, is a corticosteroid that is used as an anti-itching cream and other anti-inflammatory remedies.
Mice were then treated with betamethasone (BMS, mg, topical) or DA021 (mg/kg, p.o.) and the ears were removed and weighed. N=10 per group, significance (p-value) was calculated versus OA+vehicle using the Student's T-test, *=P≦1×10^−7, #=P≦1×10^−12.

T1 sequence (Q01726 whole entry): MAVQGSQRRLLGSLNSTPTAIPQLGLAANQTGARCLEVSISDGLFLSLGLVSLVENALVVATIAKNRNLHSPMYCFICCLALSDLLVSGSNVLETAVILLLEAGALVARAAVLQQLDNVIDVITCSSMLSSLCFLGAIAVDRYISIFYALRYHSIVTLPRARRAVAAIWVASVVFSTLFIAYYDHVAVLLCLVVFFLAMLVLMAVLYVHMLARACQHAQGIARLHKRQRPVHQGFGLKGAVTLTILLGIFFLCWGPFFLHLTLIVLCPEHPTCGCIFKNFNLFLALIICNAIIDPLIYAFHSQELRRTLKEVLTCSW
Sequence of human MC4 receptor (P32245 whole entry): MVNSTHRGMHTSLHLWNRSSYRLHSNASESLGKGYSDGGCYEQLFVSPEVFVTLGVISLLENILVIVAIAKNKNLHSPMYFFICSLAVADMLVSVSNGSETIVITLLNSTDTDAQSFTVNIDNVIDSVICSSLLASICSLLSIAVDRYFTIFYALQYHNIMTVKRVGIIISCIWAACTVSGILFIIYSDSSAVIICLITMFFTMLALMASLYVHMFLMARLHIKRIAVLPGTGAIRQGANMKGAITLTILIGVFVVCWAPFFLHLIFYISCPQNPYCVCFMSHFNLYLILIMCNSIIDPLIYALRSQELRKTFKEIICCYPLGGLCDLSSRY

Structure (SMILES) | agonist effect (cAMP increase by compound alone) (human MC4 receptor; compound alone) | IC50 (human MC4 receptor; inhibition of cAMP increase by NDP-α-MSH, read-out: IC50, antagonist effect) [µM] | Kb (human MC1 receptor [1]; antagonist effect at human MC1 receptor) [µM] | IC50 (human MC1 receptor [1]; inhibition of cAMP increase by NDP-α-MSH, cells over-expressing MC1, read-out: IC50, antagonist effect) [µM] | Ki (human MC1 receptor [2]) [µM] | IC50 (human MC1 receptor [2]; 8 concentrations) [µM] | nH (human MC1 receptor [2]; Hill coefficient) | C/EBP-b expression (mRNA) ([3]; after a 2-day treatment) | c-fos expression (mRNA) ([3]; similar conditions) | Change in Ear Weight (mg), Average (BALB/c mice; 30 mg/kg po) [mg] | Change in Ear Weight, % Inhibition (BALB/c mice; 30 mg/kg po) [%] | Change in Ear Weight (mg), Average (BALB/c mice; 100 mg/kg po) [mg] | Change in Ear Weight, % Inhibition (BALB/c mice; 100 mg/kg po) [%]
C=C(C)[C@@H]1CC[C@]2(C(=O)O)CC[C@]3(C)C(CC[C@@H]4[C@@]5(C)CC[C@H](O[C@@H]6OC[C@H](O)[C@H](O)[C@H]6O[C@@H]6O[C@@H](C)[C@H](O)[C@@H](O)[C@H]6O)[C@@](C)(CO)[C@@H]5CC[C@]43C)[C@@H]12 (stereo partly drawn) [DA001, 3-O-[α-L-rhamnopyranosyl-(1→2)-α-L-arabinopyranosyl]-3,23-dihydroxy-20(29)-lupen-28-oic acid] | did not induce an increase in cAMP | 17 | 5.3 | 50 | 5.2 | 10 | 0.9 | induced C/EBP-b expression | did not affect expression of c-fos |  |  |  | 
C=C(C)[C@@H]1CC[C@]2(/C=N/O)CC[C@]3(C)C(CCC4[C@@]5(C)CCC(=O)[C@@](C)(CO)[C@@H]5CC[C@]43C)C12 (stereo partly shown) [DA021] |  |  |  |  |  |  |  |  |  | 48.3 | 31.7 | 33.3 | 52.9
